Consider 20 molecules from US20070066516A1, “Compounds comprising cyclized somatostatin receptor binding peptides” (priority 2005, published 2007).

One assay deals with SSTR5 (Homo sapiens, UniProt P35346). Nature of the assay: Radioligand binding assay on membranes of CHO-K1 cells expressing SSTR5. Particulars: for IC50: membranes from CHO-K1 cells stably expressing cloned somatostatin receptor 5; for Ratio 2/5 in %: ratio of IC50 SSTR2 / IC50 SSTR5 in %. The protocol: (§1) Radiolabeling binding assays were carried out as described in the prior art like, e.g. in Gazal S. et al (2002) J. Med. Chem. 45: 1665-1671. The radioligand binding assays were carried out on membranes prepared from CHO-K1 cells stably expressing individually cloned somatostatin receptors 2 or 5 (SSTR2 or SSTR5). Cells were grown for 2 days for almost confluence and were washed and scraped into 50 mM ice-cold Tris-HCl, pH 7.8, containing 1 mM EGTA, 5 mM MgCl2, […], 0.1 mM PMSF, and 0.5 mg/mL aprotinin (buffer A) and were centrifuged at 10,000 rpm for 10 min at 4° C. (in Sorvall RC 26 Plus ultracentrifuge, rotor SS-34). The pellet was resuspended in buffer A and homogenized with a Polytron PT 1200 homogenizer (Kinematica AG, Switzerland) (setting 2, 3 strokes 10 s each). The homogenate was then centrifuged at 20 000 rpm for 20 min at 4° C. The pellet was resuspended in buffer A and homogenized using the Polytron homogenizer (setting 2, 3 strokes 5 s each). The protein content was determined by Bradford, and the membrane preparation was diluted in buffer A containing 1 mg/mL bovine serum albumin (BSA) to a final 0.2 or 0.4 mg/mL membrane protein (depending on the specific somatostatin receptor used).
SSTR5, sequence (P35346 whole entry): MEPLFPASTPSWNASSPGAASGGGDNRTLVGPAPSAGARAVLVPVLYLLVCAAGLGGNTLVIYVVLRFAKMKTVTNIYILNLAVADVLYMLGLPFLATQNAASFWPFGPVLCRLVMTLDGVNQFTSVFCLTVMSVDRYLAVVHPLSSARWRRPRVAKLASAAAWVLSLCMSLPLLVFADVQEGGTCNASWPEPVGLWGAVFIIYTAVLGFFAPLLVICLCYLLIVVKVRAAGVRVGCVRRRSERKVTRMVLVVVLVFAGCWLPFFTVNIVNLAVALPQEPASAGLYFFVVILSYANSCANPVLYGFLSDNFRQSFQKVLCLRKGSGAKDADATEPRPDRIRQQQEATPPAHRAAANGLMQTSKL
(§2) The radioligand binding assay was performed in 96 well microtiter plates (Maxisorp plates, Nunc, Denmark). Cell membranes ([…] protein) were incubated with the various cyclized peptides indicated in Table 1 & 2, which comprised a lanthanide chelation unit, in a final volume of 250 μL, for 45 min. at room temperature in the presence or absence of competing peptides. Nonspecific binding was defined as the radioactivity remaining bound in the presence of […] somatostatin. At the end of the binding, reaction free radioligand was separated from bound Ligand by rapid filtration through UniFilter GF/C plates preincubated in a solution of 5 g/L polyethyleneimine and 1 g/L BSA. The filtration was performed in Filter-Mate Cell Harvester (Packard Instrument Company, U.S.A.). After filtration, the filters were washed several times with cold buffer A containing 1 mg/mL BSA and allowed to dry overnight at room temperature. Then, bound radioactivity was counted. The binding assays were performed in triplicate wells. Data from radioligand binding were used to generate inhibition curves, and IC50 values were determined for each of the tested peptides. The saturation binding data were analyzed by the method of Scatchard, and IC50 values are expressed as mean±SEM (standard error of the mean).

In a further assay the target is SSTR2 (Homo sapiens, UniProt P30874). Nature of the assay: Radioligand binding assay on membranes of CHO-K1 cells expressing SSTR2. As to conditions: membranes from CHO-K1 cells stably expressing cloned somatostatin receptor 2. The procedure:
as §1, §2

For a further assay, the target named is T1, somatostatin receptor 5 (UniProt P35346 1-364, limits assumed).
T1 construct: whole, on cells; Assayed as membrane preparation of CHO-K1 cells stably expressing the cloned receptor; also called SSTR5; somatostatin receptor subtype 5
T1 sequence (P35346 whole entry): as above
Briefly: ratio of IC50 on SSTR2 to IC50 on SSTR5 (reference SSTR2), radioligand competition binding on CHO-K1 membranes.

Where a SMILES comes first, the peptide text is derived from it. Side-chain parts run from the residue outwards. [ ]: non-standard residue; d: D form. The star is where a group is joined. X1 = CC(C(=O)*)N1CCN(CC(=O)O)CCN(CC(=O)O)CCN(CC(=O)O)CC1; Tpi = O=C(O)[C@@H]1Cc2c([nH]c3ccccc23)CN1; Dip = N[C@H](C(=O)O)C(c1ccccc1)c1ccccc1; Phe(4-F) = N[C@@H](Cc1ccc(F)cc1)C(=O)O; 1Nal = N[C@@H](Cc1cccc2ccccc12)C(=O)O; 2Nal = N[C@@H](Cc1ccc2ccccc2c1)C(=O)O; Ala(cPr) = N[C@@H](CC1CC1)C(=O)O; NMeF = CN[C@@H](Cc1ccccc1)C(=O)O; 4Pal = N[C@@H](Cc1ccncc1)C(=O)O; Thz = O=C(O)[C@@H]1CSCN1; Dap = NC[C@H](N)C(=O)O

SSTR2, sequence (P30874 whole entry): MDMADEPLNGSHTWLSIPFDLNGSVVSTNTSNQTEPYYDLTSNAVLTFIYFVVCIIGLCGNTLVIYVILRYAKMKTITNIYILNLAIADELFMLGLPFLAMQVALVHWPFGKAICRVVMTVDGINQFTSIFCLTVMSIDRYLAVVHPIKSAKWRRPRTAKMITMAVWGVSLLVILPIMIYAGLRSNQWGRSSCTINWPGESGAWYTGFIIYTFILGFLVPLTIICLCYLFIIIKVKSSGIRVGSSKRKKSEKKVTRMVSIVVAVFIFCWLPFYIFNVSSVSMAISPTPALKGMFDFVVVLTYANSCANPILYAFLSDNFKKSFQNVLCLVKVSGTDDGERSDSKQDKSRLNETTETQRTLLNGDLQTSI

As for `C[C@@H](O)[C@@H]1NC(=O)[C@H](CCCCN)NC(=O)[C@@H](Cc2c[nH]c3ccccc23)NC(=O)[C@H](Cc2ccc(O)cc2)NC(=O)[C@H](CCS)N(C)C(=O)[C@H](Cc2ccccc2)NC1=O` [P1839, cyclo[Tyr-DTrp-Lys-Thr-Phe-(NMe)hCys], reference compound], on SSTR5, the IC50 was 22 nM and the “Ratio 2/5 in %” value is on record as 0.15%. The molecule also showed an IC50 on SSTR2 of 0.032 nM.
On to `CSCC[C@@H]1NC(=O)[C@H]([C@@H](C)O)NC(=O)[C@H](CCCCN)NC(=O)[C@@H](Cc2c[nH]c3ccccc23)NC(=O)[C@H](Cc2ccc(O)cc2)NC(=O)[C@H](Cc2ccccc2)N(C)C1=O` [P2265, cyclo[Tyr-DTrp-Lys-Thr-Met-(NMe)Phe]] (cyclo(Y[dW]KTM[NMeF])), for which the IC50 on SSTR5 amounted to 11.6 nM; on SSTR2 it was 0.139 nM. At SSTR5, the “Ratio 2/5 in %” value is 1.2%.
As to `CSCC[C@@H]1NC(=O)[C@H](C(C)C)NC(=O)[C@H](CCCCN)NC(=O)[C@@H](Cc2c[nH]c3ccccc23)NC(=O)[C@H](Cc2ccc(O)cc2)NC(=O)[C@H](Cc2ccccc2)N(C)C1=O` [P2266, cyclo[Tyr-DTrp-Lys-Val-Met-(NMe)Phe]] (cyclo(Y[dW]KVM[NMeF])), the figures for the IC50 at SSTR5 and at SSTR2 were 8.12 nM and 0.256 nM, respectively. Besides, the “Ratio 2/5 in %” value on SSTR5 stood at 3.2%.
For `CSCC[C@@H]1NC(=O)[C@H](CN)NC(=O)[C@H](CCCCN)NC(=O)[C@@H](Cc2c[nH]c3ccccc23)NC(=O)[C@H](Cc2ccc(O)cc2)NC(=O)[C@H](Cc2ccccc2)N(C)C1=O` [P2267, cyclo[Tyr-DTrp-Lys-Dpr-Met-(NMe)Phe]] (cyclo(Y[dW]K[Dap]M[NMeF])), the “Ratio 2/5 in %” value on SSTR5 worked out at 1.9%.
In the case of `CSCC[C@@H]1NC(=O)[C@H]([C@@H](C)O)NC(=O)[C@H](CCCCN)NC(=O)[C@@H](Cc2c[nH]c3ccccc23)NC(=O)[C@H](Cc2ccc(O)cc2)NC(=O)[C@@H]2Cc3c([nH]c4ccccc34)CN2C1=O` [P2274, cyclo[Tyr-DTrp-Lys-Thr-Met-Tpi]] (cyclo(Y[dW]KTM[Tpi])), the “Ratio 2/5 in %” value on SSTR5 is recorded as 6.1%.
As to `CSCC[C@@H]1NC(=O)[C@H]([C@@H](C)O)NC(=O)[C@H](CCCCN)NC(=O)[C@@H](Cc2c[nH]c3ccccc23)NC(=O)[C@H](Cc2cccc3ccccc23)NC(=O)[C@H](Cc2ccccc2)N(C)C1=O` [P2278, cyclo[(1)Nal-DTrp-Lys-Thr-Met-(NMe)Phe]] (cyclo([1Nal][dW]KTM[NMeF])), the IC50 was 1.59 nM on SSTR5 and 0.444 nM on SSTR2. In addition, at SSTR5, the “Ratio 2/5 in %” value worked out at 27.9%.
In the case of `CSCC[C@@H]1NC(=O)[C@H]([C@@H](C)O)NC(=O)[C@H](CCCCN)NC(=O)[C@@H](Cc2c[nH]c3ccccc23)NC(=O)[C@H](Cc2ccc3ccccc3c2)NC(=O)[C@H](Cc2ccccc2)N(C)C1=O` [P2279, cyclo[2Nal-Dtrp-Lys-Thr-Met-(N-Me)Phe]] (cyclo([2Nal][dW]KTM[NMeF])), on SSTR5, the IC50 is 15 nM and the “Ratio 2/5 in %” value is 37.2%. This molecule also showed an IC50 on SSTR2 of 5.58 nM.
For `CSCC[C@@H]1NC(=O)[C@H]([C@@H](C)O)NC(=O)[C@H](CCCCN)NC(=O)[C@@H](Cc2c[nH]c3ccccc23)NC(=O)[C@H](Cc2ccncc2)NC(=O)[C@H](Cc2ccccc2)N(C)C1=O` [P2281, cyclo[(4)Pal-DTrp-Lys-Thr-Met-(NMe)Phe]] (cyclo([4Pal][dW]KTM[NMeF])), on SSTR5, the IC50 came to 43.3 nM and the “Ratio 2/5 in %” value worked out at 0.36%. This molecule also returned an IC50 at SSTR2 of 0.154 nM.
Consider `CSCC[C@@H]1NC(=O)[C@H]([C@@H](C)O)NC(=O)[C@H](CCCCN)NC(=O)[C@@H](Cc2c[nH]c3ccccc23)NC(=O)[C@H](Cc2ccc(F)cc2)NC(=O)[C@H](Cc2ccccc2)N(C)C1=O` [P2292, cyclo[Phe(4-F)-DTrp-Lys-Thr-Met-(N-Me)Phe]] (cyclo([Phe(4-F)][dW]KTM[NMeF])), for which, on SSTR5, the IC50 was determined as 7.61 nM and the “Ratio 2/5 in %” value is 2.0%. The IC50 at SSTR2 worked out at 0.152 nM.
Regarding `CSCC[C@@H]1NC(=O)[C@H](CC2CC2)NC(=O)[C@H](CCCCN)NC(=O)[C@@H](Cc2c[nH]c3ccccc23)NC(=O)[C@H](Cc2ccc(O)cc2)NC(=O)[C@H](Cc2ccccc2)N(C)C1=O` [P2300, cyclo[Tyr-DTrp-Lys-BAla(cyclopropyl)-Met-(N-Me)Phe]] (cyclo([Ala(cPr)]M[NMeF]Y[dW]K)), the “Ratio 2/5 in %” value on SSTR5 came out at 0.96%.
Turning to `CC(C(=O)NCC(=O)NCCCC[C@@H]1NC(=O)[C@H]([C@@H](C)O)NC(=O)[C@H](CCCCN)NC(=O)[C@@H](Cc2c[nH]c3ccccc23)NC(=O)[C@H](Cc2cccc3ccccc23)NC(=O)[C@H](Cc2ccccc2)N(C)C1=O)N1CCN(CC(=O)O)CCN(CC(=O)O)CCN(CC(=O)O)CC1` (stereo partly drawn) [P2323, cyclo[1Nal-DTrp-Lys-Thr-Lys(GlyMeDOTA)-(N-Me)Phe]] (cyclo([1Nal][dW]KTK([Gly-X1])[NMeF])), at SSTR5, the “Ratio 2/5 in %” value amounted to 399.1%.

B1: P2281 (peptide)
peptide: cyclo([4Pal][dW]KTM[NMeF])
SMILES: CSCC[C@@H]1NC(=O)[C@H]([C@@H](C)O)NC(=O)[C@H](CCCCN)NC(=O)[C@@H](Cc2c[nH]c3ccccc23)NC(=O)[C@H](Cc2ccncc2)NC(=O)[C@H](Cc2ccccc2)N(C)C1=O
notes: Cyclic hexapeptide; also called cyclo[(4)Pal-DTrp-Lys-Thr-Met-(NMe)Phe]
For the molecule B1, in the assay with somatostatin receptor 5, the “Ratio 2/5 in %” value was found to be 0.36%.

B2: P2265 (peptide)
peptide: cyclo(Y[dW]KTM[NMeF])
SMILES: CSCC[C@@H]1NC(=O)[C@H]([C@@H](C)O)NC(=O)[C@H](CCCCN)NC(=O)[C@@H](Cc2c[nH]c3ccccc23)NC(=O)[C@H](Cc2ccc(O)cc2)NC(=O)[C@H](Cc2ccccc2)N(C)C1=O
notes: Cyclic hexapeptide; also called cyclo[Tyr-DTrp-Lys-Thr-Met-(NMe)Phe]
On to B2, for which the “Ratio 2/5 in %” value with somatostatin receptor 5 is 1.2%.

B3: P2297 (peptide)
peptide: cyclo([Thz][dW]KTMF)
SMILES: CSCC[C@@H]1NC(=O)[C@H]([C@@H](C)O)NC(=O)[C@H](CCCCN)NC(=O)[C@@H](Cc2c[nH]c3ccccc23)NC(=O)[C@@H]2CSCN2C(=O)[C@H](Cc2ccccc2)NC1=O
notes: Cyclic hexapeptide; also called cyclo[ThioPro-DTrp-Lys-Thr-Met-Phe]
Regarding B3, the “Ratio 2/5 in %” value with somatostatin receptor 5 was found to be 37.1%.

B4: P2326 (peptide)
peptide: cyclo([Dip][dW]KTM[NMeF])
SMILES: CSCC[C@@H]1NC(=O)[C@H]([C@@H](C)O)NC(=O)[C@H](CCCCN)NC(=O)[C@@H](Cc2c[nH]c3ccccc23)NC(=O)[C@H](C(c2ccccc2)c2ccccc2)NC(=O)[C@H](Cc2ccccc2)N(C)C1=O
notes: Cyclic hexapeptide; also called cyclo[DiphenylAla-DTrp-Lys-Thr-Met-(N-Me)Phe]
As for B4, the “Ratio 2/5 in %” value with somatostatin receptor 5 was determined as 0.42%.

B5: P2266 (peptide)
peptide: cyclo(Y[dW]KVM[NMeF])
SMILES: CSCC[C@@H]1NC(=O)[C@H](C(C)C)NC(=O)[C@H](CCCCN)NC(=O)[C@@H](Cc2c[nH]c3ccccc23)NC(=O)[C@H](Cc2ccc(O)cc2)NC(=O)[C@H](Cc2ccccc2)N(C)C1=O
notes: Cyclic hexapeptide; also called cyclo[Tyr-DTrp-Lys-Val-Met-(NMe)Phe]
As to B5, in the assay with somatostatin receptor 5, the “Ratio 2/5 in %” value is 3.2%.

B6: P2292 (peptide)
peptide: cyclo([Phe(4-F)][dW]KTM[NMeF])
SMILES: CSCC[C@@H]1NC(=O)[C@H]([C@@H](C)O)NC(=O)[C@H](CCCCN)NC(=O)[C@@H](Cc2c[nH]c3ccccc23)NC(=O)[C@H](Cc2ccc(F)cc2)NC(=O)[C@H](Cc2ccccc2)N(C)C1=O
notes: Cyclic hexapeptide; also called cyclo[Phe(4-F)-DTrp-Lys-Thr-Met-(N-Me)Phe]
For the molecule B6, the “Ratio 2/5 in %” value in the assay with somatostatin receptor 5 came out at 2%.

B7: P2279 (peptide)
peptide: cyclo([2Nal][dW]KTM[NMeF])
SMILES: CSCC[C@@H]1NC(=O)[C@H]([C@@H](C)O)NC(=O)[C@H](CCCCN)NC(=O)[C@@H](Cc2c[nH]c3ccccc23)NC(=O)[C@H](Cc2ccc3ccccc3c2)NC(=O)[C@H](Cc2ccccc2)N(C)C1=O
notes: Cyclic hexapeptide; also called cyclo[2Nal-Dtrp-Lys-Thr-Met-(N-Me)Phe]
As to B7, the “Ratio 2/5 in %” value with somatostatin receptor 5 came out at 37.2%.

B8: P2278 (peptide)
peptide: cyclo([1Nal][dW]KTM[NMeF])
modifications: also: tested peptides comprised a lanthanide chelation unit, not shown
notes: also called cyclo[(1)Nal-DTrp-Lys-Thr-Met-(NMe)Phe]
For B8, the “Ratio 2/5 in %” value in the assay with somatostatin receptor 5 came to 27.9%.

B9: P2329 (peptide)
peptide: cyclo([1Nal][dW]KVM[NMeF])
SMILES: CSCC[C@@H]1NC(=O)[C@H](C(C)C)NC(=O)[C@H](CCCCN)NC(=O)[C@@H](Cc2c[nH]c3ccccc23)NC(=O)[C@H](Cc2cccc3ccccc23)NC(=O)[C@H](Cc2ccccc2)N(C)C1=O
notes: Cyclic hexapeptide; also called cyclo[1Nal-DTrp-Lys-Val-Met-(N-Me)Phe]
In the case of B9, the “Ratio 2/5 in %” value with somatostatin receptor 5 came out at 10.5%.
